Reference: US5688773A, “Method of selectively destroying neoplastic cells” (priority 1994, dated 1997)

What was measured:
[1] = system: cytochrome P450 2B1-positive cells (9L-ZP and L450-2); assay: cells; details: Rattus norvegicus, 120 h
9L-Z tumors = assay: Tumor growth delay study; type: in vivo, Fischer 344 rats; details: 100 mg/kg single intraperitoneal injection 7 days after implantation; tumors inhibited/total, 7-8 weeks
Description: (§1) Tumor Growth Delay Studies: 9L cells were grown subcutaneously (s.c.) as solid tumors in female Fischer 344 rats. Adult female Fischer 344 rats (120-150g) were inoculated at 2×10^6 cells/s.c. site; cytochrome P450 2B1-negative cells (parental 9L or 9L-Z cells) were injected in one thigh and cytochrome P450 2B1-positive cells (9L-ZP or L450-2 cells) in the other thigh. This strategy was employed to control any potential effects that subcutaneous growth of the 9L tumor might have on liver cytochrome P450-dependent cyclophosphamide activation activity. Drug treatment was initiated seven days after tumor implantation. Rats were randomized and divided into two groups. One group was treated with cyclophosphamide at 100 mg/kg body weight given as a single intraperitoneal injection. Another group was injected with saline as control. Tumor size was monitored by caliper measurement at times ranging up to 7-8 weeks, at which point the animals were sacrificed.

9L tumors = assay: Tumor growth delay study; type: in vivo, Fischer 344 rats; details: 100 mg/kg single intraperitoneal injection 7 days after implantation; tumors inhibited/total, 7-8 weeks
Description: as §1

9L-ZP tumors = assay: Tumor growth delay study; type: in vivo, Fischer 344 rats; details: 100 mg/kg single intraperitoneal injection 7 days after implantation; tumors inhibited/total, 7-8 weeks
Description: as §1

L450-2 tumors = assay: Tumor growth delay study; type: in vivo, Fischer 344 rats; details: 100 mg/kg single intraperitoneal injection 7 days after implantation; tumors inhibited/total, 7-8 weeks
Description: as §1

9L-ZP cells = assay: Drug sensitivity of cultured 9L cells with or without metyrapone; details: Rattus norvegicus, 120 h
C450-8 tumors = assay: Cyclophosphamide sensitivity of subcutaneous tumors; type: in vivo, nude mice; details: day 17
Description: (§2) Animal Studies: For animal injections, cultured cells in the proliferative stage were replated 24 hours before harvesting, then trypsinized, centrifuged at low speed, washed once by resuspension in Hank's buffered saline, centrifuged, and then resuspended in DMEM without serum at a density of 5×10^6 cells/mL. For subcutaneous injections, 10^6 C450-8 or C6 cells in 200 μl were injected into the flanks of athymic mice (NCY/Sed, nu/nu; MGH breeding colony; five animals per group). After 3 days, when tumors had reached a volume of about 0.01 cm^3 (as measured by external calipers) (Lee et al., Neurosurgery 26:598-605 (1990) and again at 14 days, 100 μl injections of either 20 mg CPA (Sigma) per mL saline or 100 μl saline were performed directly into the tumor mass. Animals were sacrificed at 17 days by euthanasia.

C6 tumors = assay: as above; type: in vivo, nude mice; details: day 17
Description: as §2

[2] = system: C6 cells exposed to CM from C6-P450; assay: C6 colony formation after conditioned medium from drug-exposed cells; details: for Colony numbers: colonies six days later
[3] = system: parental 9L cells co-cultured with 9L-ZP cells; assay: Co-culture experiments with culture inserts; type: cell-based, rat; details: 1 mM cyclophosphamide, 5 days, no cell contact
Description: Co-culture Experiments: Parental 9L cells were plated in the bottom wells of culture plates (Falcon 3502), and cytochrome P450 2B1-negative or cytochrome P450 2B1-positive cells were plated into 25 mm cell culture inserts (0.45 μm pore size, Falcon 3090). Culture media were removed 18-24 hours later by aspiration. Culture medium without drug (1.0 mL) was added to the bottom well, and 1.0 mL medium containing drug was added to the upper cell culture insert. Cell numbers were determined 5 days later, as described above.

C6 cells = assay: Cell proliferation assay; type: cell-based, rat; details: 0.5 mM, four days
Description: Cell proliferation assays: For cell proliferation assays, cells (2×10^5 per dish, unless otherwise noted) were plated onto 10 cm dishes. […] Incubations were continued for four days and cell numbers were assayed using a Coulter counter (Coulter Electronics Inc.), after harvesting in trypsinEDTA.

[4] = system: cytochrome P450 2B1-negative cells (parental 9L and 9L-Z); assay: Drug sensitivity of cultured 9L cells; type: cell-based, rat; details: millimolar concentrations
Description: To test for drug sensitivity, 1×10^5 cells were plated in 30-mm tissue culture plates (Falcon 3046) in duplicate. Drugs were added 18-24 hours after seeding. Cells were allowed to grow for times ranging up to 5 days after drug treatment, and the final cell number was then determined. Cells were rinsed with phosphate buffered saline or Hank's buffered saline, dispersed using trypsin-EDTA (GIBCO/BRL, Inc.), and then counted with a hemocytometer. Results are expressed as a growth ratio, i.e., the number of cells in plates containing drug as a percentage of the corresponding drug-free controls (mean±range of duplicate determinations).

[5] = system: C6BAG cells co-cultured with C6VIKWT cells; assay: Simultaneous co-culture, ganciclovir sensitivity of recipient colonies; type: cell-based, rat; details: 100 μM ganciclovir; donor:recipient ratios of 0.1 and 1
Description: For simultaneous co-culture experiments, 10^3 recipient cells, C6BAG or C6BBAG were plated together with 10^5 C6VIK or C6VIKWT donor cells, in duplicate. Controls were C6BAG or C6BBAG cells co-plated with C6BU1 cells at a similar ratio (1:100). After seven days, ganciclovir was added at varying concentrations (0 to 300 μM) and culture was processed as above. To assess the effects of the ratio of the donor cells to recipient cells, simultaneous co-culture experiments were also done varying the ratio of the donor cell, C6VIKWT, to the recipient cell, C6BAG, from 0.1 to 100.

[6] = 2 mg CPA intratumorally day 3 and 14

O=P1(N(CCCl)CCCl)NCCCO1 (stereo not shown) [cyclophosphamide]
IC50 [1]: ~70 µM
Complete Tumor Growth Inhibition (9L-Z tumors): 0/9
Complete Tumor Growth Inhibition (9L tumors): 0/11
Complete Tumor Growth Inhibition (9L-ZP tumors): 8/9
Complete Tumor Growth Inhibition (L450-2 tumors): 11/11
cytotoxicity at 1000 µM (9L-ZP cells): > 90%
Tumor volume (C450-8 tumors; [6]): 0.016±0.003 cm^3
ratio of the mean volumes of CPA-treated to saline-treated tumors (C450-8 tumors): 0.035
Tumor volume (C6 tumors; [6]): 0.093±0.035 cm^3
ratio of the mean volumes of CPA-treated to saline-treated tumors (C6 tumors): 0.124
Colony numbers ([2]; CM after 0.5 h of 0.5 mM CPA): 263 ± 6
Colony numbers ([2]; CM after 1.5 h of 0.5 mM CPA): 267 ± 9
Colony numbers ([2]; CM after 3 h of 0.5 mM CPA): 144 ± 19
Colony numbers ([2]; CM after 6 h of 0.5 mM CPA): 94 ± 8
Colony numbers ([2]; CM after 10 h of 0.5 mM CPA): 12 ± 0.3
Colony numbers ([2]; CM after 24 h of 0.5 mM CPA): 0
Colony numbers ([2]; CM after 32 h of 0.5 mM CPA): 0
Colony numbers ([2]; CM after 48 h of 0.5 mM CPA): 0
Colony numbers ([2]; CM after 72 h of 0.5 mM CPA): 0
Colony numbers ([2]; CM after 96 h of 0.5 mM CPA): 0
Inhibition of C6 cell colony formation ([2]; CM after exposure to CPA for 24 hours): Complete inhibition
Toxicity of conditioned medium to C6 cell growth / colony formation ([2]; CM from treated C6-P450 cells, nine days): highly toxic
Secretion effect, C6 colony number ([2]; Table V panel C, CM from treated C6-P450 cultures): 0
Killing of both cell populations [3]: killed
Effect on cell proliferation (C6 cells): had no effect
Cell proliferation assay, number of cells (C6 cells; Table V panel A): 21.10±1.37 ×10^6
Effects on growth [4]: no adverse effects

Nc1nc(O)c2ncn(COC(CO)CO)c2n1 [ganciclovir]
ganciclovir sensitivity compared to C6BAG cells alone [5]: no significant difference
